Test results from patent US20230150951A1, “2,5- OR 2,6-DISUBSTITUTED HYDROQUINONE DERIVATIVES WITH AT LEAST ONE CARBOXY, SULFO OR AMIDO GROUP USEFUL AS MEDICAMENTS” (OM PHARMA SA, priority 2020, published 2023).

Tests used:
ARPE-19 cells [1] = assay: ROS and cytokine/VEGF mRNA production by ARPE-19 monolayer cells in non-diabetic and diabetic milieu; type: cell-based, human; settings: ARPE19 monolayer; for ROS: ROS % to 25 mM D-Glucose; for IL-1β R.Q. mRNA / IL-6 R.Q. mRNA / IL-18 R.Q. mRNA / TNFα R.Q. mRNA / VEGF R.Q. mRNA: relative change vs 25 mM D-Gluc
Description: (§1) Outer Blood Retinal Barrier conditions: human retinal pigment epithelial cells (RPE) cultures ARPE-19, a spontaneously immortalised human RPE cell line were obtained from American Type Culture Collection (Manassas, Va., USA). ARPE-19 cells and they were cultured in euglycaemic conditions (D-glucose (D-Glc), 5.5 mmol/L) and hyperglycaemic conditions (D-glucose, 25 mmol/L) for 18 days at 37° C. under 5% (vol./vol.) CO2 in medium (DMEM/F12) supplemented with 10% (vol./vol.) FBS (Hyclone; Thermo Fisher Scientific, UT, USA) and 1% (vol./vol.) penicillin/streptomycin (Hyclone; Thermo Fisher Scientific). ARPE-19 cells from passage 20 were used and the medium changed every 3-4 days. For permeability studies, ARPE-19 cells were seeded at 400,000 cells/ml (80,000 RPE cells/well) in 0.33 cm^2 HTS-Transwells (Costar; Corning, N.Y., USA). For real-time PCR, western blot analysis and immunofluorescence cells are seeded at 20,000 cells/ml.
(§2) Experimental conditions and treatments: apart from the euglycemic condition, eighteen different conditions were tested in cells cultured under 25 mmol/L D-glucose:
• Proinflammatory cytokines were evaluated in ARPE-19 cells by RT-PCR and mRNA for IL-6, TNF-α, IL-1β, IL-18, VEGF, IL-10, FGF were measured using the double delta CT method 2-ΔΔCT with Cts values for the gene of interest and the endogenous human B-actin to obtain ΔCT; mRNA values were expressed as relative change with respect to the condition 25 mM D-Gluc. (ref: Livak K J, Analysis of Relative Gene Expression Data Using Real-Time Quantitative PCR and the 2-ΔΔCT Method, Methods, 2001, 25(4), 402-408, doi 10.1006/meth.2001.1262) • ROS production was evaluated using Cell Biolabs' OxiSelect™ Intracellular ROS Assay (Green Fluorescence) (Bionova, Madrid, Spain). The assay employs the cell-permeable fluorogenic probe 2′, 7′-Dichlorodihydrofluorescin diacetate (DCFH-DA), oxidized to highly fluorescent 2′, 7′-Dichlorodihydrofluorescein (DCF) by cellular ROS. • Endothelin-1, PDGF and VCAM-1 expression was analyzed in HREC monolayers by immunohistochemical analysis and by RT-PCR. • TJ expression (ZO) is analyzed in ARPE-19 and HREC monolayers by immunohistochemical analysis.

ARPE-19 cells [2] = assay: Outer blood retinal barrier: ARPE-19 monolayer permeability to FITC-dextran; type: cell-based, human; settings: for p < 0.05 (ARPE19 permeability versus diabetic milieu): IL-β, after 90 min
Source text: The mechanisms of actions involved in the anti-permeability effect of the tested treatments were explored by assessing permeability to fluorescent dextran and proinflammatory cytokines production using their mRNA expression levels by RT-PCR.
as §1, §2
Condition 2) Cells are treated with diabetic milieu 25 mM D-Glucose+vehicle (days 15, 16 and 17 at one application/day) in order to evaluate their effect in preventing the cell damage provoked by the diabetic milieu.
Condition 9) Cells were treated with 25 mM D-Glucose and bevacizumab (0.2 mg/ml) for 72 h (days 15, 16 and 17 at one application/day) to evaluate their potential cytotoxic effects.
Condition 10)=Diabetic milieu; cells were treated with 25 mM D-Glucose+[…] (10 ng/ml)+TNF-α (25 ng/ml)+VEGF (25 ng/ml), for 48 h (days 16 and 17 at one application/day) in order to provoke the disruption of the monolayer.
Condition 17) Cells are treated with diabetic milieu (25 mM D-Glucose+IL-1β (10 ng/ml)+TNF-α (25 ng/ml)+VEGF (25 ng/ml))+bevacizumab (0.2 mg/mL) (days 15, 16 and 17 at one application/day) in order to evaluate their effect in preventing the cell damage provoked by the diabetic milieu.
Measurement of ARPE-19 permeability: The permeability of RPE cells was determined at 18 days by measuring the apical-to basolateral movements of FITC-dextran (40 kDa) (Sigma, St Louis, […]., USA) following a procedure previously reported by Villarroel et al. Exp Eye Res, 2009, 89, 913-920.

[3] = 25 mM D-Gluc, compound 25 μg/mL
[4] = 25 mM D-Gluc, compound 50 μg/mL
[5] = diabetic milieu (25 mM D-Gluc + VEGF, TNF-α, IL-1β), compound 25 μg/mL
[6] = diabetic milieu (25 mM D-Gluc + VEGF, TNF-α, IL-1β), compound 50 μg/mL
[7] = No 3-5: 25 mM D-Gluc + compound 25 μg/mL
[8] = No 6-8: 25 mM D-Gluc + compound 50 μg/mL + VEGF, TNF-α, (so in the source)
[9] = No 11-13: 25 mM D-Gluc + compound 25 μg/mL + VEGF, TNF-α, (diabetic milieu)
[10] = No 11-13: compound 25 μg/mL + VEGF, TNF-α
[11] = No 14-16: 25 mM D-Gluc + compound 50 μg/mL + VEGF, TNF-α, (diabetic milieu)
[12] = No 14-16: compound 50 μg/mL + VEGF, TNF-α

Row | SMILES | ROS (ARPE-19 cells [1]; [3]) | IL-1β R.Q. mRNA (ARPE-19 cells [1]; [3]) | IL-6 R.Q. mRNA (ARPE-19 cells [1]; [3]) | IL-18 R.Q. mRNA (ARPE-19 cells [1]; [3]) | TNFα R.Q. mRNA (ARPE-19 cells [1]; [3]) | VEGF R.Q. mRNA (ARPE-19 cells [1]; [3]) | ROS (ARPE-19 cells [1]; [4]) | IL-1β R.Q. mRNA (ARPE-19 cells [1]; [4]) | IL-6 R.Q. mRNA (ARPE-19 cells [1]; [4]) | IL-18 R.Q. mRNA (ARPE-19 cells [1]; [4]) | TNFα R.Q. mRNA (ARPE-19 cells [1]; [4]) | VEGF R.Q. mRNA (ARPE-19 cells [1]; [4]) | ROS (ARPE-19 cells [1]; [5]) | IL-1β R.Q. mRNA (ARPE-19 cells [1]; [5]) | IL-6 R.Q. mRNA (ARPE-19 cells [1]; [5]) | IL-18 R.Q. mRNA (ARPE-19 cells [1]; [5]) | TNFα R.Q. mRNA (ARPE-19 cells [1]; [5]) | VEGF R.Q. mRNA (ARPE-19 cells [1]; [5]) | ROS (ARPE-19 cells [1]; [6]) | IL-1β R.Q. mRNA (ARPE-19 cells [1]; [6]) | also measured
1 | O=C(O)c1cc(NC(=O)c2cc(O)cc(C(=O)Nc3ccc(O)c(C(=O)O)c3)c2O)ccc1O [IIc-007a, 5-(3-(3-carboxy-4-hydroxyphenylaminocarbonyl)-2,5-dihydroxybenzamido)-2-hydroxy benzoic acid] | 55 ± 6.4% | 0.74 ± 0.26 R.Q. | 0.73 ± 0.00 R.Q. | 0.75 ± 0.09 R.Q. | 0.57 ± 0.18 R.Q. | 0.06 ± 0.01 R.Q. | 72 ± 11% | 0.24 ± 0.11 R.Q. | 0.34 ± 0.08 R.Q. | 0.04 ± 0.00 R.Q. | 0.45 ± 0.30 R.Q. | 0.12 ± 0.03 R.Q. | 47 ± 7.6 % | 41.03 ± 17.57 R.Q. | 10.83 ± 6.90 R.Q. | 0.07 ± 0.01 R.Q. | 6.31 ± 0.06 R.Q. | 0.11 ± 0.01 R.Q. | 74 ± 38 % | 11.39 ± 6.52 R.Q. | IL-6 R.Q. mRNA (ARPE-19 cells [1]; [6]): 1.50 ± 1.19 R.Q.; IL-18 R.Q. mRNA (ARPE-19 cells [1]; [6]): 0.03 ± 0.00 R.Q.; TNFα R.Q. mRNA (ARPE-19 cells [1]; [6]): 4.24 ± 0.77 R.Q.; VEGF R.Q. mRNA (ARPE-19 cells [1]; [6]): 0.13 ± 0.02 R.Q.; % permeability ARPE19 (ARPE-19 cells [2]; [7]): 66.1 ± 4.9%; % permeability ARPE19 (ARPE-19 cells [2]; [8]): 113.1 ± 11.4%; % permeability ARPE19 (ARPE-19 cells [2]; [9]): 114.7 ± 19.0%; p < 0.05 (ARPE19 permeability versus diabetic milieu) (ARPE-19 cells [2]; [10]): * (* p < 0.05 for FITC dextran leakage measured after 90 min in [ng/mL/cm^2] in comparison with diabetic milieu (25 mM D-Gluose + VEGF, TNF-α, IL-β)); % permeability ARPE19 (ARPE-19 cells [2]; [11]): 136.8 ± 13.0%; p < 0.05 (ARPE19 permeability versus diabetic milieu) (ARPE-19 cells [2]; [12]): * (* p < 0.05 for FITC dextran leakage measured after 90 min in [ng/mL/cm^2] in comparison with diabetic milieu (25 mM D-Gluose + VEGF, TNF-α, IL-β))
2 | O=C(O)c1cc(O)cc(CS(=O)(=O)Cc2cc(O)cc(C(=O)O)c2O)c1O [IVc-059a, 3-((2,5-Dihydroxy-3-carboxyphenyl)methylsulfonylmethyl)-2,5-dihydroxybenzoic acid] | 62 ± 9% | 0.20 ± 0.05 R.Q. | 0.28 ± 0.11 R.Q. | 0.07 ± 0.01 R.Q. | 0.27 ± 0.08 R.Q. | 0.11 ± 0.01 R.Q. | 116 ± 12% | 0.21 ± 0.13 R.Q. | 0.28 ± 0.11 R.Q. | 0.04 ± 0.01 R.Q. | 0.27 ± 0.10 R.Q. | 0.06 ± 0.03 R.Q. | 61 ± 40 % | 20.81 ± 5.11 R.Q. | 5.84 ± 1.13 R.Q. | 0.03 ± 0.01 R.Q. | 5.39 ± 1.01 R.Q. | 0.04 ± 0.00 R.Q. | 159 ± 32% | 27.76 ± 5.18 R.Q. | IL-6 R.Q. mRNA (ARPE-19 cells [1]; [6]): 9.78 ± 2.30 R.Q.; IL-18 R.Q. mRNA (ARPE-19 cells [1]; [6]): 0.01 ± 0.00 R.Q.; TNFα R.Q. mRNA (ARPE-19 cells [1]; [6]): 3.61 ± 1.82 R.Q.; VEGF R.Q. mRNA (ARPE-19 cells [1]; [6]): 0.20 ± 0.03 R.Q.; % permeability ARPE19 (ARPE-19 cells [2]; [7]): 70.2 ± 8.8%; % permeability ARPE19 (ARPE-19 cells [2]; [8]): 112.6 ± 19.8%; % permeability ARPE19 (ARPE-19 cells [2]; [9]): 98.5 ± 36.5%; p < 0.05 (ARPE19 permeability versus diabetic milieu) (ARPE-19 cells [2]; [10]): * (* p < 0.05 for FITC dextran leakage measured after 90 min in [ng/mL/cm^2] in comparison with diabetic milieu (25 mM D-Gluose + VEGF, TNF-α, IL-β)); % permeability ARPE19 (ARPE-19 cells [2]; [11]): 130.4 ± 24.8%
3 | O=C(O)c1cc(NC(=O)c2cc(O)c(C(=O)Nc3ccc(O)c(C(=O)O)c3)cc2O)ccc1O [Ic-007a, 5-(4-(3-carboxy-4-hydroxyphenylaminocarbonyl)-2,5-dihydroxybenzamido)-2-hydroxy benzoic acid] | 32 ± 15% | 0.12 ± 0.01 R.Q. | 0.52 ± 0.49 R.Q. | 0.45 ± 0.18 R.Q. | 0.27 ± 0.07 R.Q. | 0.09 ± 0.02 R.Q. | 26 ± 4.6% | 0.15 ± 0.03 R.Q. | 0.20 ± 0.07 R.Q. | 0.07 ± 0.01 R.Q. | 0.59 ± 0.33 R.Q. | 0.12 ± 0.03 R.Q. | 33 ± 4.8 % | 12.21 ± 1.46 R.Q. | 0.52 ± 0.49 R.Q. | 0.02 ± 0.00 R.Q. | 11.26 ± 0.96 R.Q. | 0.06 ± 0.02 R.Q. | 27 ± 13 % | 10.66 ± 3.01 R.Q. | IL-6 R.Q. mRNA (ARPE-19 cells [1]; [6]): 3.28 ± 1.46 R.Q.; IL-18 R.Q. mRNA (ARPE-19 cells [1]; [6]): 0.02 ± 0.00 R.Q.; TNFα R.Q. mRNA (ARPE-19 cells [1]; [6]): 5.22 ± 3.96 R.Q.; VEGF R.Q. mRNA (ARPE-19 cells [1]; [6]): 0.17 ± 0.05 R.Q.; % permeability ARPE19 (ARPE-19 cells [2]; [7]): 75.2 ± 11.1%; % permeability ARPE19 (ARPE-19 cells [2]; [8]): 107.3 ± 43.9%; % permeability ARPE19 (ARPE-19 cells [2]; [9]): 103.7 ± 15.7%; p < 0.05 (ARPE19 permeability versus diabetic milieu) (ARPE-19 cells [2]; [10]): * (* p < 0.05 for FITC dextran leakage measured after 90 min in [ng/mL/cm^2] in comparison with diabetic milieu (25 mM D-Gluose + VEGF, TNF-α, IL-β)); % permeability ARPE19 (ARPE-19 cells [2]; [11]): 127.1 ± 13.5%; p < 0.05 (ARPE19 permeability versus diabetic milieu) (ARPE-19 cells [2]; [12]): * (* p < 0.05 for FITC dextran leakage measured after 90 min in [ng/mL/cm^2] in comparison with diabetic milieu (25 mM D-Gluose + VEGF, TNF-α, IL-β))
